Data reported in patent publication US20080166323A1, “Activators of Hexosamine Biosynthesis as Inhibitors of Injury Induced by Ischemia or Hermorrhagic Shock” (UAB RESEARCH FOUNDATION, priority 2004, published 2008).

What was measured:
perfused hearts = assay: calcium paradox in perfused hearts (Langendorff); parameters: species or system rat; conditions: 5-minute pretreatment of control hearts
Method: The effect of short-term hyperglycemia (2-5 days) on the calcium paradox was explored. The protocol (a 30-minute stabilization after hanging the heart on a Langendorff apparatus, a Ca^2+-free buffer for 10 min, a buffer containing 1.25 mM Ca^2+ buffer for 15 min) was initially applied to perfused hearts from control rats. When calcium was removed from the perfusate, the heart gradually ceased beating (FIG. 2A), although no protein loss from the heart was detected (FIG. 3C). […] The decrease in left ventricular […] pressure (LVDP) and an elevation in end diastolic pressure (EDP), as well as protein loss and blanching signaled the transition to a “stone heart” (Zimmerman, Cardiovasc Res (2000) 45(1):119-121) in hearts from all control animals examined.
Azaserine (AZA), the inhibitor of GFAT and HBP flux (Marshall, et al., J Biol Chem (1991) 266(8):4706-4712), negated the effects of hyperglycemia, restoring sensitivity to the paradox in 3 of 7 hearts (FIG. 2B). […] This decreased somewhat the protection seen with hyperglycemia, but made the reversal seen with azaserine more pronounced (FIGS. 2B and 3).
To confirm the involvement of the HBP in the protection due to hyperglycemia, a complementary series of experiments at a final Ca^2+ concentration of 1.25 mM were performed.
An independent mechanism of increasing metabolites in the HBP is to provide the heart with free fatty acids (Hawkins, et al., J Clin Invest (1997) 99(9):2173-2182). This occurs because of the “glucose-sparing” effect, a rapid block on the entry of glucose into the glycolytic pathway because of an inhibition of phosphofructokinase. […] In addition, SKF96365 (also known as 1-[β-[3-(4-methoxyphenyl)propoxy]-4-methoxyphenethyl]-1H-imidazole, HCl; available from Calbiochem, San Diego, Calif.) as an independent means of blocking the channels responsible for CCE was utilized (Putney, Capacitative Calcium Entry (1997) Austin: Landes Biomedical). This too was at least partially effective in 4 of 6 animals (FIG. 4).

O-GlcNAc on proteins = assay: CTD110 immunoblot of O-GlcNAc-containing proteins in isolated heart extracts; conditions: ten-minute perfusion, 5 mM, isolated hearts
Method: FIG. 8 is a photograph of a CTD110 immunoblot performed on extracts from isolated hearts following a 10-minute perfusion with buffer (control) or buffer containing 5 mM glucosamine (GlcNH2). The differences in the O-GlcNAc-containing protein pattern between the control and the GlcNH2 treated hearts are indicated by arrows.
In the experiments above with isolated hearts, glucosamine was protective after only a ten minute pre-incubation. While not wishing to be bound by theory, the mechanism believed to be responsible for the protection is an increase in concentration of an intracellular metabolite of the HBP, which results in an increase in protein-associated O-GlcNAc. […] Increases at ten minutes were 47%. With respect to the second point, experiments were performed in which a monoclonal antibody specific for O-GlcNAc on proteins (CTD110) (Corner, et al, Anal Biochem (2001) 293(2):169-177) was used in an immunoblotting protocol. The specificity of this antibody for O-GlcNAc-containing epitopes is verified in each experiment by the inclusion of 10 mM GlcNAc along with the CTD110 antibody on parallel samples. These samples show no staining (data not shown). CTD110 immunoblots were performed on extracts from isolated hearts following a ten-minute perfusion with buffer or buffer containing 5 mM glucosamine (FIG. 8). […]

## N[C@H]1C(O)O[C@H](CO)[C@@H](O)[C@@H]1O (stereo partly shown) [glucosamine]
Perfused hearts
  function prior to calcium removal: did not alter function
Perfused hearts; final Ca2+ 1.25 mM
  hearts with significant protection following calcium readdition: 7 of 7
Perfused hearts; final Ca2+ 1.25 mM, data not shown
  Protein loss inhibited: 88%
O-GlcNAc on proteins
  O-GlcNAc-containing protein pattern vs buffer: Clear differences
